Experimental data from US5091381A, “2H-1,3,4-benzotriazepin-2-ones” (Biomeasure, Inc., priority 1991, dated 1992).
Where two headings read alike, the source gives them in different places.

Columns and labels:
[1] = target: neural BZD (central BZD receptor); test: Benzodiazepine receptor binding, neural (central) BZD; design: species or system rat
Experimental: (§1) Crude membranes were prepared by homogenization of a rat forebrain sample in 20 ml of ice-cold 50 mM phosphate buffer (81 mM Na^+, 9 mMK^+) buffer with a Brinkman Polytron (setting 6, 15 sec). Buffer was added to obtain a final volume of 40 ml, and the homogenate was centrifuged in a Sorval SS-34 rotor at 39,000 g for 10 min at 0°-4° C. The resulting supernatant was decanted and discarded. The pellet was rehomogenized in ice-cold buffer, diluted, and centrifuged as before. The final pellet was resuspended in the assay buffer and held on ice for the receptor binding assay.
(§2) The inhibition constants (Ki) were calculated from the equation Ki=IC50/(I+L/Kd), where L is the radioligand concentration and Kd is the equilibrium dissociation constant for the radioligand. The IC50 was derived from the inhibition data by linear least squares regression of log (B/Bt-B) versus log I, where I is the test compound concentration, Bt is the total amount of radioligand specifically bound, and B is the amount of specific binding in the presence of a given concentration of the unlabeled test compound. The IC50 is the antilog of log I, when the expression log (B/Bt-B) equals zero.

peripheral BZD receptor = target: T1, peripheral BZD receptor (Rattus norvegicus, UniProt P16257); test: Receptor binding assay, peripheral BZD ([3H]RO5-4864 displacement, rat forebrain membranes); conditions: read-out: BENZODIAZEPINE RECEPTOR BINDING, PERIPHERAL BZD
T1 construct: Crude membranes were prepared by homogenization of a rat forebrain sample; from tissue; host or cells: rat forebrain crude membranes
Experimental: as §1
For the receptor binding assay, aliquots of the membrane preparation were incubated for 90 min at 4° C. in 50 mM phosphate buffer containing 0.5 nM [^3 H]RO-4864 and various concentrations of the unlabeled test compounds. The assay was terminated by rapid filtration through Whatman GF/B filters under vacuum. The filters were washed three times with 5-ml aliquots of ice-cold buffer, and the bound radioactivity trapped on the filters was counted by liquid scintillation spectrometry.
as §2

[2] = test system: rat pancreatic tumor cell line (AR42J); test: Proliferation assay (growth curves), AR42J; assay type: cell-based; conditions: single application
Experimental: (§3) The rat pancreatic tumor cell line (AR42J) was obtained from the American Type Culture Collection. The human colon adenocarcinoma (HT-29) and mouse melanoma (B16 F10) were obtained from the in-house tumor bank. The HT-29 cell line is used to generate the CX-1 tumor in nude mice. All cell lines were propagated in Dulbecco's modified Eagle's medium (DMEM) supplemented with 10% fetal bovine serum (FBS) and incubated in a humidified atmosphere of 90% air/ 10% CO2 at 37° C. These cell lines were maintained at Biomeasure, Inc. and were free of mycoplasma as judged by the indirect (Hoechst) method and the direct (Agar) method.
(§4) Growth Curves--The AR42J and HT-29 cells were plated at 5×10^4 cells per well and the B16 F10 was plated at 1×10^4 cells per well in 24 well tissue cult ure dishes in 1ml of DMEM supplemented with 10% FBS. […] The tissue culture plates were incubated at 37° C. in a humidified atomsphere of 90% air/10% CO2 for up to 8 days. At various times, single cell suspensions were obtained by washing the wells with DMEM, adding 0.5 ml of 0.05% trypsin--0.53 mM EDTA, incubating at 37° C. for 5 min., triturating, and adding 0.5ml of DMEM supplemented with 10% FBS to inhibit the trypsin. The total content of each well was added to Isoton and counted using a Coulter Counter model ZF attached to a Channelizer model 256 to ensure that a uniform single cell population was obtained.

mouse melanoma (B16 F10) = test: Proliferation assay (growth curves), B16 F10; assay type: cell-based; conditions: 100 nM, single application
Experimental: as §3, §4

[3] = test system: human colon adenocarcinoma (HT-29); test: Proliferation assay (growth curves), HT-29; assay type: cell-based
Experimental: as §3, §4

[4] = read-out: BENZODIAZEPINE RECEPTOR BINDING, NEURAL BZD

CN1C(=O)CN=C(c2ccccc2)c2cc(Cl)ccc21 [DIAZEPAM, diazepam]
Ki ([1]; read-out: BENZ[…] BINDING, NEURAL BZD): 8.4 nM

O=C1CN=C(c2ccccc2Cl)c2cc([N+](=O)[O-])ccc2N1 [CLONAZEPAM, clonazepam, reference compound]
Ki (peripheral BZD receptor): 10000 nM
Ki [1, 4]: 0.55 nM

CN1C(=O)N(Cc2ccc(F)cc2)N=C(c2ccccc2)c2ccccc21 [BIM-18268]
Ki (peripheral BZD receptor): 12 nM

CN1C(=O)N(C(=O)c2ccc(F)cc2)N=C(c2ccccc2)c2ccccc21 [BIM-18154]
Ki (peripheral BZD receptor): 0.68 nM
inhibition of the growth of AR42J cells [2]: did not inhibit
inhibiting the growth of B16 F10 cells (mouse melanoma (B16 F10)): marginally active
inhibition of growth ([3]; HT-29, day 4, single application): ~35%
inhibiting the growth of HT-29 cells ([3]; single application): active

CN1C(=O)CN=C(c2ccc(Cl)cc2)c2cc(Cl)ccc21 [RO5-4864]
Ki [1, 4]: 7210 nM

CN1C(=O)N(C(=O)c2ccc(F)c(F)c2)N=C(c2ccccc2)c2ccccc21 [BIM-18272]
Ki (peripheral BZD receptor): 3.1 nM

CN1C(=O)N(C(=O)c2ccc(Cl)c(Cl)c2)N=C(c2ccccc2)c2ccccc21 [BIM-18156]
Ki (peripheral BZD receptor): 1.68 nM

CN1C(=O)N(Cc2ccc(Cl)c(Cl)c2)N=C(c2ccccc2)c2ccccc21 [BIM-18269]
Ki (peripheral BZD receptor): 53 nM
